Reference: patent US20160199351A1, “COMPOSITIONS AND METHODS FOR INHIBITING FUNGAL INFECTIONS” (priority 2015, published 2016)
In brackets after ≈: the same amount, converted by molar mass. Where two headings read alike, the source gives them in different places.

Key:
[1] = test system: C. guilliermondii; experiment: MIC against Candida species (Table 4); details: Meyerozyma guilliermondii, 48 h
[2] = test system: Trichophyton rubrum; experiment: Trichophyton rubrum mycelia growth dose-response (MIC by linear regression); type: cell-based; details: for MIC: Trichophyton rubrum, FIG. 3 dose-response, linear regression
[3] = test system: Scedosporium apiospermum; experiment: MIC, CLSI M38-A2 broth dilution (Table 1); type: cell-based
[4] = test system: Blastomyces dermatitidis; experiment: MIC (Table 6); type: cell-based; details: for MIC: read-out: MIC 100%
[5] = test system: Cryptococcus neoformans; experiment: MIC against Cryptococcus neoformans (Table 4); details: for MIC50 / MIC: Cryptococcus neoformans; for MIC: read-out: MIC 100%
[6] = test system: Pneumocystis murina; experiment: In vitro ATP content of Pneumocystis (luciferin-luciferase assay); details: for IC50: Pneumocystis murina, read-out: IC50 (reduction in ATP)
[7] = test system: Fusarium oxysporum; experiment: MIC, CLSI M38-A2 broth dilution (Table 1); type: cell-based
[8] = test system: Aspergillus fumigatus; experiment: Aspergillus fumigatus mycelia growth dose-response (MIC by linear regression); type: cell-based; details: for MIC: Aspergillus fumigatus, FIG. 2A dose-response, linear regression
[9] = test system: Coccidioides immitis/posadasii; type: cell-based
[10] = test system: P. variotii; experiment: MIC (Table 5); details: Paecilomyces variotii; for MIC: read-out: MIC 100%
[11] = read-out: MIC, concentration resulting in 50% inhibition of mycelia growth
[12] = read-out: MIC, concentration resulting in 90% inhibition of mycelia growth

For `NCC(=O)Nc1ccc(-n2nc(C(F)(F)F)cc2-c2ccc3c(ccc4ccccc43)c2)cc1` [AR-12, 2-amino-N-(4-(5-(phenanthren-2-yl)-3-(trifluoromethyl)-1H-pyrazol-1-yl)phenyl)acetamide], the MIC50 ([1]; isolate Cgu-7, 48 hrs) was 4 µg/mL (≈ 8.69 µM), the MIC ([1]; read-out: MIC 100%, isolate Cgu-1, 48 hrs) was 4 µg/mL (≈ 8.69 µM) and the MIC ([1]; read-out: MIC 100%, isolate Cgu-2, 48 hrs) was 4 µg/mL (≈ 8.69 µM). The MIC ([1]; read-out: MIC 100%, isolate Cgu-3, 48 hrs) was 4 µg/mL (≈ 8.69 µM), the MIC ([1]; read-out: MIC 100%, isolate Cgu-4, 48 hrs) was 2 µg/mL (≈ 4.34 µM) and the MIC ([1]; read-out: MIC 100%, isolate Cgu-5, 48 hrs) was 4 µg/mL (≈ 8.69 µM). The MIC ([1]; read-out: MIC 100%, isolate Cgu-6, 48 hrs) was 4 µg/mL (≈ 8.69 µM), the MIC ([1]; read-out: MIC 100%, isolate Cgu-7, 48 hrs) was 4 µg/mL (≈ 8.69 µM) and the MIC [2, 11] was 4.5 µM (≈ 2.07 µg/mL). The MIC [2, 12] was 11.3 µM (≈ 5.2 µg/mL), the “concentration that effectively prevents growth” value ([2]; stated for all three fungi) was 8 to 40 µM and the “MIC 50%” value ([3]; isolate SA1, 72 hours) was 2 gg/m1. The “MIC 100%” value ([3]; isolate SA1, 72 hours) was 2 gg/m1, the “MIC 50%” value ([3]; isolate SA2, 72 hours) was 1 gg/m1 and the “MIC 100%” value ([3]; isolate SA2, 72 hours) was 2 gg/m1. It also gave an MIC50 ([4]; isolate BD1, 72/192 hrs) of 0.25 µg/mL (≈ 0.543 µM), an MIC ([4]; isolate BD1, 72/192 hrs) of 0.5 µg/mL (≈ 1.09 µM) and an MIC50 ([4]; isolate BD2, 72/192 hrs) of 2 µg/mL (≈ 4.34 µM). The MIC ([4]; isolate BD2, 72/192 hrs) was 2 µg/mL (≈ 4.34 µM), the MIC50 ([4]; isolate BD3, 72/192 hrs) was 1 µg/mL (≈ 2.17 µM) and the MIC ([4]; isolate BD3, 72/192 hrs) was 2 µg/mL (≈ 4.34 µM). It also gave an MIC50 ([5]; 48 h, isolate CN-1, 48 hrs) of 2 µg/mL (≈ 4.34 µM), an MIC50 ([5]; 48 h, isolate CN-2, 48 hrs) of 4 µg/mL (≈ 8.69 µM) and an MIC50 ([5]; 48 h, isolate CN-3, 48 hrs) of 4 µg/mL (≈ 8.69 µM). The MIC ([5]; 48 h) was 4 µg/mL (≈ 8.69 µM), the MIC50 ([5]; 72 h, isolate CN-1, 72 hrs) was 4 µg/mL (≈ 8.69 µM) and the MIC50 ([5]; 72 h, isolate CN-2, 72 hrs) was 4 µg/mL (≈ 8.69 µM). For the same compound, the MIC50 ([5]; 72 h, isolate CN-3, 72 hrs) was 4 µg/mL (≈ 8.69 µM), the MIC ([5]; 72 h) was 4 µg/mL (≈ 8.69 µM) and the “MIC 100%” value ([5]; isolate CN-2, 48 hrs) was 4 µg/mL (≈ 8.69 µM). The “MIC 100%” value ([5]; isolate CN-2, 72 hrs) was 4 µg/mL (≈ 8.69 µM), the “MIC 100%” value ([5]; isolate CN-3, 48 hrs) was 4 µg/mL (≈ 8.69 µM) and the “MIC 100%” value ([5]; isolate CN-3, 72 hrs) was 4 µg/mL (≈ 8.69 µM). For the same compound, the IC50 ([6]; 24 h) was 9.69 µg/mL (≈ 21 µM), the IC50 ([6]; 48 h) was 2.77 µg/mL (≈ 6.02 µM) and the IC50 ([6]; 72 h) was 1.78 µg/mL (≈ 3.87 µM). The “Pm % Reduction in ATP/Vehicle Control” value ([6]; Table 3, 1 μg/ml, 24 hours) was 3.51%, the “Pm % Reduction in ATP/Vehicle Control” value ([6]; Table 3, 1 μg/ml, 48 hours) was 5.76% and the “Pm % Reduction in ATP/Vehicle Control” value ([6]; Table 3, 1 μg/ml, 72 hours) was 15.48%. The “Pm % Reduction in ATP/Vehicle Control” value ([6]; Table 3, 10 μg/ml, 24 hours) was 54.02%, the “Pm % Reduction in ATP/Vehicle Control” value ([6]; Table 3, 10 μg/ml, 48 hours) was 85.38% and the “Pm % Reduction in ATP/Vehicle Control” value ([6]; Table 3, 10 μg/ml, 72 hours) was 94.23%. For the same compound, the “Pm % Reduction in ATP/Vehicle Control” value ([6]; Table 3, 100 μg/ml, 24 hours) was 83.6%, the “Pm % Reduction in ATP/Vehicle Control” value ([6]; Table 3, 100 μg/ml, 48 hours) was 97.76% and the “Pm % Reduction in ATP/Vehicle Control” value ([6]; Table 3, 100 μg/ml, 72 hours) was 98.09%. For the same compound, the “MIC 50%” value ([7]; isolate FO1, 48 hours) was 4 gg/m1, the “MIC 100%” value ([7]; isolate FO1, 48 hours) was 4 gg/m1 and the “MIC 50%” value ([7]; isolate FO2, 48 hours) was 4 gg/m1. The “MIC 100%” value ([7]; isolate FO2, 48 hours) was 4 gg/m1, the MIC [8, 11] was 3.1 µM (≈ 1.43 µg/mL) and the MIC [8, 12] was 8.6 µM (≈ 3.96 µg/mL). For the same compound, the “concentration that effectively prevents growth” value ([8]; stated for all three fungi) was 8 to 40 µM, the “MIC 50%” value ([9]; isolate Cocci1, 48 hours) was 1 gg/m1 and the “MIC 100%” value ([9]; isolate Cocci1, 48 hours) was 1 gg/m1. The “MIC 50%” value ([9]; isolate Cocci2, 48 hours) was 1 gg/m1, the “MIC 100%” value ([9]; isolate Cocci2, 48 hours) was 1 gg/m1 and the “MIC 50%” value ([9]; isolate Cocci3, 48 hours) was 2 gg/m1. For the same compound, the “MIC 100%” value ([9]; isolate Cocci3, 48 hours) was 2 gg/m1, the MIC50 [10] was 4 µg/mL (≈ 8.69 µM) and the MIC50 ([10]; 24 h) was 2 µg/mL (≈ 4.34 µM). The MIC ([10]; 24 h) was 4 µg/mL (≈ 8.69 µM) and the MIC [10] was 4 µg/mL (≈ 8.69 µM).
